Broadly, the EC50 is the midpoint of the concentration-response curve.

For twelve compounds, EC50 and inhibition results are on record in patent publication EP3597653A1, “CYCLIC INHIBITORS OF HEPATITIS B VIRUS” (IRBM S.P.A., priority 2018, dated 2020).

Structures are written as SMILES.

For the first assay, the system named is HBV. As to the kind of experiment: HBV inhibition assay in HepAD38 cells (extracellular HBV DNA by direct qPCR). It is filed as cell-based. As to conditions: Hepatitis B virus, 8-point dose-response curve, 96 hours, read-out: HBV inh EC50. The procedure, abridged: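 HepAD38 cells (HepG2, tetracycline-off HBV) induced in tetracycline-free medium, treated 96 h at 37 °C with compound, 0.5% DMSO. Extracellular HBV DNA quantified by direct SYBR qPCR of lysed supernatant, as % of untreated; EC50 from 8-point 1:2 curves; cytotoxicity by CellTiter-Blue.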
On the technique in general: In qPCR the cycle at which signal appears reflects the starting amount.
`O=C(Nc1cc(F)c(F)c(F)c1)c1ccc2c(c1)S(=O)(=O)NC(C1CCNCC1)N2` (stereo not drawn) [Example E32, 3-(piperidin-4-yl)-N-(3,4,5-trifluorophenyl)-3,4-dihydro-2H-benzo[e][1,2,4]thiadiazine-7-carboxamide 1,1-dioxide]: the EC50 is < 1000 nM. Still for that read-out and setting: under `O=C(Nc1cc(F)c(F)c(F)c1)c1ccc2c(c1)S(=O)(=O)NC(c1c(F)cccc1F)N2` (stereo not drawn) [Example E35, 3-(2,6-difluorophenyl)-N-(3,4,5-trifluorophenyl)-3,4-dihydro-2H-benzo[e][1,2,4]thiadiazine-7-carboxamide 1,1-dioxide] stands < 1000 nM.

Still in this assay, the particulars now being: Hepatitis B virus, compound at 0.5 µM, 96 hours, relative to non-treated reference, read-out: Anti HBV Activity (conc µM).
Consider `O=C(Nc1cc(F)c(F)c(F)c1)c1cnc2c(c1)S(=O)(=O)N([C@H]1CC[C@H](O)CC1)C(=O)N2` [Example E121, trans-2-(4-hydroxycyclohexyl)-3-oxo-N-(3,4,5-trifluorophenyl)-3,4-dihydro-2H-pyrido[2,3-e][1,2,4]thiadiazine-7-carboxamide 1,1-dioxide], for which the inhibition at 0.5 µM was < 50%. Turning to `O=C(Nc1ccc(F)c(Cl)c1)c1ccc2c(c1)S(=O)(=O)NCN2` [Example E65, N-(3-chloro-4-fluorophenyl)-3,4-dihydro-2H-benzo[e][1,2,4]thiadiazine-7-carboxamide 1,1-dioxide], the inhibition at 0.5 µM was > 50%. Still for that read-out and setting: under `O=C(Nc1cc(F)c(F)c(F)c1)c1ccc2c(c1)S(=O)(=O)NCN2O` [Example E4, 4-hydroxy-N-(3,4,5-trifluorophenyl)-3,4-dihydro-2H-benzo[e][1,2,4]thiadiazine-7-carboxamide 1,1-dioxide] stands < 50%; under `O=C(Nc1cc(F)c(F)c(F)c1)c1ccc2c(c1)S(=O)(=O)N(c1cccnc1)C(=O)N2` [Example E128, 3-oxo-2-(pyridin-3-yl)-N-(3,4,5-trifluorophenyl)-3,4-dihydro-2H-benzo[e][1,2,4]thiadiazine-7-carboxamide 1,1-dioxide], < 50%.

The same assay, now with this note: Hepatitis B virus, compound at 1 µM, 96 hours, relative to non-treated reference, read-out: Anti HBV Activity (conc µM).
For `O=C(Nc1cc(F)c(F)c(F)c1)c1ccc2c(c1)S(=O)(=O)NC(C(F)(F)F)N2` (stereo not drawn) [Example E15, 3-(trifluoromethyl)-N-(3,4,5-trifluorophenyl)-3,4-dihydro-2H-benzo[e][1,2,4]thiadiazine-7-carboxamide1,1-dioxide], the inhibition at 1 µM is < 50%. Consider `O=C(Nc1cc(F)c(F)c(F)c1)c1ccc2c(c1)S(=O)(=O)NC(c1ccn[nH]1)N2` (stereo not drawn) [Example E46, 3-(1H-pyrazol-5-yl)-N-(3,4,5-trifluorophenyl)-3,4-dihydro-2H-benzo[e][1,2,4]thiadiazine-7-carboxamide 1,1-dioxide], for which the inhibition at 1 µM is > 50%.

As for `O=C(Nc1cc(F)c(F)c(F)c1)c1ccc2c(c1)S(=O)(=O)NC(CO)CO2` (stereo not drawn) [Example E135, 3-(hydroxymethyl)-N-(3,4,5-trifluorophenyl)-3,4-dihydro-2H-benzo[b][1,4,5]oxathiazepine-8-carboxamide 1,1-dioxide], the inhibition at 1 µM was < 50%. The same measure, in the same setting: under `NC1=Nc2ccc(C(=O)Nc3cc(F)c(F)c(F)c3)cc2S(=O)(=O)N1` [Example E69, 3-amino-N-(3,4,5-trifluorophenyl)-2H-benzo[e][1,2,4]thiadiazine-7-carboxamide 1,1-dioxide] stands < 50%; under `O=C(Nc1cc(F)c(F)c(F)c1)c1cc2c(cc1Cl)NC(c1nccs1)NS2(=O)=O` (stereo not drawn) [Example E36, 6-chloro-3-(thiazol-2-yl)-N-(3,4,5-trifluorophenyl)-3,4-dihydro-2H-benzo[e][1,2,4]thiadiazine-7-carboxamide 1,1-dioxide], > 50%; under `CC(C)OCCC1Nc2ccc(C(=O)Nc3cc(F)c(F)c(F)c3)cc2S(=O)(=O)N1` (stereo not drawn) [Example E16, 3-(2-isopropoxyethyl)-N-(3,4,5-trifluorophenyl)-3,4-dihydro-2H-benzo[e][1,2,4]thiadiazine-7-carboxamide 1,1-dioxide], > 50%.
